pIC50: −log10 of the molar value.
Assays:
HT-29 = assay: Antiproliferative activity against human HT-29 cells at 10 uM incubated for 72 hrs by MTT assay relative to control; type: functional; details: HT-29, 72 h
MKN-45 = assay: Antiproliferative activity against human MKN45 cells at 10 uM incubated for 72 hrs by MTT assay relative to control; type: functional; details: MKN-45, 72 h
[1] = Antiproliferative activity against human NIH-H460 cells at 10 uM incubated for 72 hrs by MTT assay relative to control; type: functional; details: NIH-H460, 72 h
[2] = Volume of distribution in Sprague-Dawley rat at 2.5 mg/kg, iv measured for 5 min to 72 hrs by LC-MS/MS analysis; type: ADME, organism-based; details: in vivo
[3] = Tmax in Sprague-Dawley rat at 10 mg/kg, ig measured for 15 min to 72 hrs by LC-MS/MS analysis; type: ADME, organism-based; details: in vivo, po
[4] = target: Hepatocyte growth factor receptor (Homo sapiens, UniProt P08581); assay: Inhibition of purified recombinant MET kinase domain (unknown origin) using biotin as substrate preincubated for 5 mins followed by substrate addition and measured after 30 to 60 mins in presence of ATP by HTRF assay
Chain of Hepatocyte growth factor receptor (P08581 whole entry, the tested form may be a part): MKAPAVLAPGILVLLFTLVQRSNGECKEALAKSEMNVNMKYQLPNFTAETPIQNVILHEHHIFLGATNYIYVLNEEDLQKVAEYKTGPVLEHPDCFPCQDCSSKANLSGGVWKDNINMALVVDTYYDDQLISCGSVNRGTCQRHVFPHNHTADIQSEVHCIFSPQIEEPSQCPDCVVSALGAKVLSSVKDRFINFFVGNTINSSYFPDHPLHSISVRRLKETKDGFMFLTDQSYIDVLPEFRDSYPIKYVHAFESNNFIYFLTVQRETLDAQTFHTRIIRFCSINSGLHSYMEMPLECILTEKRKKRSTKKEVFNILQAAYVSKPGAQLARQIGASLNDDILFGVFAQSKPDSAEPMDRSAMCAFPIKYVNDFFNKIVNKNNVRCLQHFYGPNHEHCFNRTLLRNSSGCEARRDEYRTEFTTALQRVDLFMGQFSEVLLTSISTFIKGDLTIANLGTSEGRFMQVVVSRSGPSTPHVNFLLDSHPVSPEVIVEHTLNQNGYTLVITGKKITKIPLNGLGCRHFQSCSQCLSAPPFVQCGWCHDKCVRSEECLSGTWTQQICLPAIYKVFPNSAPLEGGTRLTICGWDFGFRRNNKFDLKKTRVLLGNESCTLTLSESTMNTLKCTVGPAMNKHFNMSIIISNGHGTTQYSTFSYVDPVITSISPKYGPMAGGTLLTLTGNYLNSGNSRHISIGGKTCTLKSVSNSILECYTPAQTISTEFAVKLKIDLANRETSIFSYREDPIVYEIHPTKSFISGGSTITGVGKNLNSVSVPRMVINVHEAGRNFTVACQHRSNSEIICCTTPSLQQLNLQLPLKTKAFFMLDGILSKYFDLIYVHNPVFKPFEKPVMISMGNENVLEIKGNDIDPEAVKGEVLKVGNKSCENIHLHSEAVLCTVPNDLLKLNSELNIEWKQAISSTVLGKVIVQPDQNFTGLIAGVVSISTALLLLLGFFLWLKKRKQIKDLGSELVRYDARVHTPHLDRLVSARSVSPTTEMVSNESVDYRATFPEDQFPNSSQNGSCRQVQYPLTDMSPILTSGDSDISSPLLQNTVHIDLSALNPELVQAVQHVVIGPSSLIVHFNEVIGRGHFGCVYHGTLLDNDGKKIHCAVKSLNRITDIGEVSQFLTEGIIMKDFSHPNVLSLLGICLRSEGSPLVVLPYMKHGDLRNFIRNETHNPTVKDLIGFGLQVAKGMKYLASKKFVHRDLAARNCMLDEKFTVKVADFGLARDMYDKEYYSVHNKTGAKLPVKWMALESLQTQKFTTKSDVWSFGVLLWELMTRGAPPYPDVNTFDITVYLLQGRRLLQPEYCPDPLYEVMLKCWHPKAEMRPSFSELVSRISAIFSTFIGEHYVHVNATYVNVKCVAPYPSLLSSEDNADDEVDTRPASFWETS

[5] = AUC (0 to infinity) in Sprague-Dawley rat at 10 mg/kg, ig measured for 15 min to 72 hrs by LC-MS/MS analysis; type: ADME, organism-based; design: dose 10 mg/kg, time infinity, route intragastric; details: in vivo, po
[6] = Tmax in Sprague-Dawley rat at 2.5 mg/kg, iv measured for 5 min to 72 hrs by LC-MS/MS analysis; type: ADME, organism-based; details: in vivo
[7] = Clearance in Sprague-Dawley rat at 2.5 mg/kg, iv measured for 5 min to 72 hrs by LC-MS/MS analysis; type: ADME, organism-based; details: in vivo
[8] = Mean residence time in Sprague-Dawley rat at 10 mg/kg, ig measured for 15 min to 72 hrs by LC-MS/MS analysis; type: ADME, organism-based; details: in vivo, po
[9] = Cmax in Sprague-Dawley rat at 10 mg/kg, ig measured for 15 min to 72 hrs by LC-MS/MS analysis; type: ADME, organism-based; design: dose 10 mg/kg, route intragastric; details: in vivo, po
[10] = Volume of distribution in Sprague-Dawley rat at 10 mg/kg, ig measured for 15 min to 72 hrs by LC-MS/MS analysis; type: ADME, organism-based; details: in vivo, po
[11] = Oral bioavailability in Sprague-Dawley rat at 10 mg/kg, ig measured for 15 min to 72 hrs by LC-MS/MS analysis; type: ADME, organism-based; details: in vivo
in vitro = details: human, liver microsomes
[12] = Half life in Sprague-Dawley rat at 2.5 mg/kg, iv measured for 5 min to 72 hrs by LC-MS/MS analysis; type: ADME, organism-based; details: in vivo
[13] = Mean residence time in Sprague-Dawley rat at 2.5 mg/kg, iv measured for 5 min to 72 hrs by LC-MS/MS analysis; type: ADME, organism-based; details: in vivo
[14] = AUC (0 to infinity) in Sprague-Dawley rat at 2.5 mg/kg, iv measured for 5 min to 72 hrs by LC-MS/MS analysis; type: ADME, organism-based; design: dose 2.5 mg/kg, route intravenous, time infinity; details: in vivo
[15] = Half life in Sprague-Dawley rat at 10 mg/kg, ig measured for 15 min to 72 hrs by LC-MS/MS analysis; type: ADME, organism-based; details: in vivo, po
[16] = target: Vascular endothelial growth factor receptor 2 (Homo sapiens, UniProt P35968); assay: Inhibition of purified recombinant VEGFR2 kinase domain (unknown origin) using biotin as substrate preincubated for 5 mins followed by substrate addition and measured after 30 to 60 mins in presence of ATP by HTRF assay
Chain of Vascular endothelial growth factor receptor 2 (P35968 whole entry, the tested form may be a part): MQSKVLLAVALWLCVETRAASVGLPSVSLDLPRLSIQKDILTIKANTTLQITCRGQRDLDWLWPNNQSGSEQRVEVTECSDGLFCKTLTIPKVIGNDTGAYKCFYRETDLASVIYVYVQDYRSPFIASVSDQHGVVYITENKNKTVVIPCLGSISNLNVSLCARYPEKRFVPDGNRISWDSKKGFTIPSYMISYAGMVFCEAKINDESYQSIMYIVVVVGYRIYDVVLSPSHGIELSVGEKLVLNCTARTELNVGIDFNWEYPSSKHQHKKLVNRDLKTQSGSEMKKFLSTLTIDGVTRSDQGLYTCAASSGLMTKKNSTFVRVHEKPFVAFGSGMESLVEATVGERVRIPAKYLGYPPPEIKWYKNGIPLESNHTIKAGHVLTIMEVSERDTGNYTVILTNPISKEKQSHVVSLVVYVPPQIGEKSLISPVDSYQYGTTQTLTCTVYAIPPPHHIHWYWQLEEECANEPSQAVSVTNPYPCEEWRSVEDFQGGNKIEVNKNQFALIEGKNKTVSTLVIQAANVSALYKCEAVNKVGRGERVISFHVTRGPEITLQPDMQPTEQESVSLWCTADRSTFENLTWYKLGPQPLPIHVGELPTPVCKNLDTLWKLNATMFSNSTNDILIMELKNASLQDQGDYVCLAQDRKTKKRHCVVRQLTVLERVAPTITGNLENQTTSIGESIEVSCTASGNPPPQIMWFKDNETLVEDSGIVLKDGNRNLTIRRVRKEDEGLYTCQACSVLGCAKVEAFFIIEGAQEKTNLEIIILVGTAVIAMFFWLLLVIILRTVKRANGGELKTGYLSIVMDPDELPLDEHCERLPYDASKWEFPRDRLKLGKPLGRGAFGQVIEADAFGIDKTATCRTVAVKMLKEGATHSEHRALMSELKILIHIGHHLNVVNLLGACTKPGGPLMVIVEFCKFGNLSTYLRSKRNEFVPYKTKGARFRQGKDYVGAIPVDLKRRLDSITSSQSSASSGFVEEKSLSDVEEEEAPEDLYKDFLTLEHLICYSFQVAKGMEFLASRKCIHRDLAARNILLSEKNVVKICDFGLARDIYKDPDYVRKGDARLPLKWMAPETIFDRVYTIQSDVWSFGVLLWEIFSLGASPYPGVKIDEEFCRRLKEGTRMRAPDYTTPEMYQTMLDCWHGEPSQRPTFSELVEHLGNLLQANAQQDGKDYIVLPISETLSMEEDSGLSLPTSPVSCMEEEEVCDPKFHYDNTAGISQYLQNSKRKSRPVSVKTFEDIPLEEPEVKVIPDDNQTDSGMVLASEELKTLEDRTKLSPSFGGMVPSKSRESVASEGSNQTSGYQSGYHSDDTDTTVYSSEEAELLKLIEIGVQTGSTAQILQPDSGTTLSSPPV

[17] = Clearance in Sprague-Dawley rat at 10 mg/kg, ig measured for 15 min to 72 hrs by LC-MS/MS analysis; type: ADME, organism-based; details: in vivo, po
[18] = Cmax in Sprague-Dawley rat at 2.5 mg/kg, iv measured for 5 min to 72 hrs by LC-MS/MS analysis; type: ADME, organism-based; design: dose 2.5 mg/kg, route intravenous; details: in vivo
Homo sapiens = species on record: Homo sapiens; assay: Selectivity index, ratio of IC50 for purified recombinant VEGFR2 kinase domain (unknown origin) to IC50 for purified recombinant MET kinase domain (unknown origin)
[19] = Mean residence time in Sprague-Dawley rat at 5.0 mg/kg, ig measured for 15 min to 72 hrs by LC-MS/MS analysis; type: ADME, organism-based; details: in vivo, po
[20] = Oral bioavailability in Sprague-Dawley rat at 5.0 mg/kg, ig measured for 15 min to 72 hrs by LC-MS/MS analysis; type: ADME, organism-based; details: in vivo
[21] = Half life in Sprague-Dawley rat at 5.0 mg/kg, ig measured for 15 min to 72 hrs by LC-MS/MS analysis; type: ADME, organism-based; details: in vivo, po
[22] = Clearance in Sprague-Dawley rat at 5.0 mg/kg, ig measured for 15 min to 72 hrs by LC-MS/MS analysis; type: ADME, organism-based; details: in vivo, po
[23] = Tmax in Sprague-Dawley rat at 5.0 mg/kg, ig measured for 15 min to 72 hrs by LC-MS/MS analysis; type: ADME, organism-based; details: in vivo, po
[24] = Volume of distribution in Sprague-Dawley rat at 1.0 mg/kg, iv measured for 5 min to 72 hrs by LC-MS/MS analysis; type: ADME, organism-based; details: in vivo
[25] = Clearance in Sprague-Dawley rat at 1.0 mg/kg, iv measured for 5 min to 72 hrs by LC-MS/MS analysis; type: ADME, organism-based; details: in vivo
[26] = Cmax in Sprague-Dawley rat at 1.0 mg/kg, iv measured for 5 min to 72 hrs by LC-MS/MS analysis; type: ADME, organism-based; design: dose 1 mg/kg, route intravenous; details: in vivo
[27] = AUC (0 to infinity) in Sprague-Dawley rat at 5.0 mg/kg, ig measured for 15 min to 72 hrs by LC-MS/MS analysis; type: ADME, organism-based; design: dose 5 mg/kg, time infinity, route intragastric; details: in vivo, po
[28] = Half life in Sprague-Dawley rat at 1.0 mg/kg, iv measured for 5 min to 72 hrs by LC-MS/MS analysis; type: ADME, organism-based; details: in vivo
[29] = Mean residence time in Sprague-Dawley rat at 1.0 mg/kg, iv measured for 5 min to 72 hrs by LC-MS/MS analysis; type: ADME, organism-based; details: in vivo
[30] = AUC (0 to infinity) in Sprague-Dawley rat at 1.0 mg/kg, iv measured for 5 min to 72 hrs by LC-MS/MS analysis; type: ADME, organism-based; design: dose 1 mg/kg, time infinity, route intravenous; details: in vivo
[31] = Cmax in Sprague-Dawley rat at 5.0 mg/kg, ig measured for 15 min to 72 hrs by LC-MS/MS analysis; type: ADME, organism-based; design: dose 5 mg/kg, route intragastric; details: in vivo, po
[32] = Volume of distribution in Sprague-Dawley rat at 5.0 mg/kg, ig measured for 15 min to 72 hrs by LC-MS/MS analysis; type: ADME, organism-based; details: in vivo, po

pIC50 [4]	half-life (in vitro) [h]	pIC50 [16]	Structure (SMILES)	inhibition at 10 µM (HT-29) [%]	inhibition at 10 µM (MKN-45) [%]	inhibition at 10 µM [1] [%]	further results
			COc1cc2nccc(Oc3ccc(NC(=O)C4(C(=O)Nc5ccc(F)cc5)CC4)cc3)c2cc1OC [CABOZANTINIB]	29	49.1	54.8	
8.01	3.16	7.17	Nc1nccc(Oc2ccc(Nc3nccc4[nH]cc(-c5ccc(F)cc5)c(=O)c34)cc2F)c1Cl	56.2	85.7	79.1	Vd [2]: 0.4 L/kg; Tmax [3]: 2.7 h; AUC(0-inf) [5]: 2200 ng·h/mL; Tmax [6]: 1.8 min; clearance [7]: 10 mL/min/kg; MRT [8]: 3 h; Cmax [9]: 600 ng/mL; Vd [10]: 7.5 L/kg; bioavailability [11]: 12%; half-life [12]: 0.5 h; MRT [13]: 0.3 h; AUC(0-inf) [14]: 4500 ng·h/mL; half-life [15]: 1 h; CL/F [17]: 83.3 mL/min/kg; Cmax [18]: 16400 ng/mL
7.62		7.21	O=C(Nc1cc(Oc2ccc(Nc3nccc4[nH]cc(-c5ccc(F)cc5)c(=O)c34)cc2F)ccn1)C1CCC1	46	52.8	43.6	
8.33	2.72	7.69	CCC(=O)Nc1cc(Oc2ccc(Nc3nccc4[nH]cc(-c5ccc(F)cc5)c(=O)c34)cc2F)ccn1	68.7	92.1	69.7	
8.01	1.34	< 5.52	O=C(Nc1cc(Oc2ccc(Nc3nccc4[nH]cc(-c5ccc(F)cc5)c(=O)c34)cc2F)ccn1)C1CCCCC1	8.7	55.2	72.1	Ratio IC50 (Homo sapiens): > 306
8.09	13.2	8.06	O=C(Nc1cc(Oc2ccc(Nc3nccc4[nH]cc(-c5ccc(F)cc5)c(=O)c34)cc2F)ccn1)C1CC1	25.5	81.8	54.6	MRT [19]: 11.4 h; bioavailability [20]: 63%; half-life [21]: 6.4 h; CL/F [22]: 1.67 mL/min/kg; Tmax [23]: 7.3 h; Vd [24]: 0.7 L/kg; clearance [25]: 1.33 mL/min/kg; Cmax [26]: 1900 ng/mL; AUC(0-inf) [27]: 42200 ng·h/mL; half-life [28]: 6.8 h; MRT [29]: 8.5 h; AUC(0-inf) [30]: 13500 ng·h/mL; Cmax [31]: 2700 ng/mL; Vd [32]: 1.1 L/kg
7.55		< 5.52	CC(C)(C)C(=O)Nc1cc(Oc2ccc(Nc3nccc4[nH]cc(-c5ccc(F)cc5)c(=O)c34)cc2F)ccn1	-45.8	62.5	56.7	Ratio IC50 (Homo sapiens): > 107
7.93	4.15	6.54	CC(O)C(=O)Nc1cc(Oc2ccc(Nc3nccc4[nH]cc(-c5ccc(F)cc5)c(=O)c34)cc2F)ccn1 (configuration not stated)	47.8	67.3	56	
7.83		7.71	CCCC(=O)Nc1cc(Oc2ccc(Nc3nccc4[nH]cc(-c5ccc(F)cc5)c(=O)c34)cc2F)ccn1	23.5	64.6	49.7	
7.47		4.98	O=C(Nc1cc(Oc2ccc(Nc3nccc4c3c(=O)c(-c3ccc(F)cc3)cn4CCO)cc2F)ccn1)C1CC1	3.5	41.8	52.1	
7.75		6.64	CC(C)C(=O)Nc1cc(Oc2ccc(Nc3nccc4[nH]cc(-c5ccc(F)cc5)c(=O)c34)cc2F)ccn1	83.4	95.4	84.6	
7.83		7.57	CCCCC(=O)Nc1cc(Oc2ccc(Nc3nccc4[nH]cc(-c5ccc(F)cc5)c(=O)c34)cc2F)ccn1	-42.2	62.7	71.8	
7.67		7.42	CC(=O)Nc1cc(Oc2ccc(Nc3nccc4[nH]cc(-c5ccc(F)cc5)c(=O)c34)cc2F)ccn1	36.8	77.1	58.2	
7.81		5.86	CCn1cc(-c2ccc(F)cc2)c(=O)c2c(Nc3ccc(Oc4ccnc(NC(=O)C5CC5)c4)c(F)c3)nccc21	15.8	31.9	11	Ratio IC50 (Homo sapiens): 88
7.59		< 4.52	CC(C)(O)Cn1cc(-c2ccc(F)cc2)c(=O)c2c(Nc3ccc(Oc4ccnc(NC(=O)C5CC5)c4)c(F)c3)nccc21	-2.6	44.3	67.4	
7.46		< 5.52	CC(C)(O)C(=O)Nc1cc(Oc2ccc(Nc3nccc4[nH]cc(-c5ccc(F)cc5)c(=O)c34)cc2F)ccn1	-2.9	57.8	54.3	Ratio IC50 (Homo sapiens): > 85.7
8.00	7.23	7.23	O=C(CO)Nc1cc(Oc2ccc(Nc3nccc4[nH]cc(-c5ccc(F)cc5)c(=O)c34)cc2F)ccn1	18.5	63	53.6	
